Assay results reported in patent US5905068A, “Retroviral protease inhibiting compounds” (Abbott Laboratories, priority 1996, dated 1999).

Columns and labels:
HIV-1 protease = HIV-1 protease (Human immunodeficiency virus type 1 group M subtype B, UniProt P04585); assay: Fluorogenic Assay for Screening Inhibitors of HIV Protease
Procedure: The inhibitory potency of the compounds of the invention were determined by the following method: The compound of the invention was dissolved in DMSO and a small aliquot further diluted with DMSO to 100 times the final concentration desired for testing. The reaction was carried out in a 6×50 mm tube in a total volume of 300 microliters. […] After addition of inhibitor, the reaction mixture was placed in the fluorometer cell holder and incubated at 30° C. for several minutes. The reaction was initiated by the addition of a small aliquot of cold HIV protease. The fluorescence intensity (excitation 340 nm, emission 490 nm) was recorded as a function of time. The reaction rate was determined for the first six to eight minutes. The observed rate was directly proportional to the moles of substrate cleaved per unit time. The percent inhibition was calculated according to the equation: 100×(1-(rate of inhibitor)/(rate in absence of inhibitor)). As a control, duplicate reactions were performed identically as above but without the addition of an inhibitor compound.

uninfected MT4 cells = assay: Cytotoxicity in uninfected MT4 cells (MTT); format: cell-based; details: 5 days, n=four duplicate determinations, read-out: CTC50 (50% cytotoxicity concentration)
How it was run: (§1)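 Uninfected MT4 cells, 1×10^4 per well, incubated 5 days at 37 °C with half-log compound dilutions. Viability read by MTT-type OD at 570/650 nm after SDS/HCl lysis overnight. CTC50 taken as 50% cytotoxicity concentration.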

HIVIIIB = assay: Antiviral Activity: anti-HIV activity in MT4 cells infected with HIVIIIB (MTT); format: cell-based; details: MOI 0.003, 5 days, n=four duplicate determinations
How it was run: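 MT4 cells infected 1 h with HIVIIIB at 0.003 MOI, washed, seeded at 1×10^4 cells/well with half-log compound dilutions in RPMI 1640 plus 10% FBS and added human serum (final 60%, 35% or 22.5% total serum), 5 days at 37 °C. Viability read by MTT at 570/650 nm; EC50 by median effect equation, CTC50 on uninfected MT4 cells.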

[1] = Cytotoxicity in uninfected MT4 cells (MTT); format: cell-based; details: human, 5 days, n=four duplicate determinations, read-out: CTC50 (50% cytotoxicity concentration)
How it was run: as §1

[2] = Effect of ritonavir on pharmacokinetics of the co-administered compound of this invention; format: in vivo; details: ritonavir in combination with a compound of this invention
[3] = Human immunodeficiency virus 1, 120 h

Structure (SMILES) | inhibition at 0.0005 µM (HIV-1 protease; pH 4.5) [%] | CC50 at 120 h [1] [µM] | EC50 (HIVIIIB; [3]) [µM] | other results
Cc1ccc(OCC(=O)N[C@@H](Cc2ccccc2)C[C@H](O)[C@H](Cc2ccccc2)NC(=O)O[C@H]2CO[C@H]3OCC[C@H]32)c(C)n1 [Example 10, (2S,3S,5S)-5-(2,6-Dimethyl-pyridin-3-yl-oxyacetyl)amino-2-((3R,3aS,6aR)-bis-tetrahydrofuran-3-yl-oxycarbonyl)amino-1,6-diphenyl-3-hydroxyhexane] | – | – | – | % Inhibition (HIV-1 protease; 0.5 nM inhibitor, pH 4.5, 30° C.): 49%; CC50 (uninfected MT4 cells): > 100 µM; EC50 (HIVIIIB): 0.184 µM
Cc1c(O)cccc1C(=O)N[C@@H](Cc1ccccc1)[C@@H](O)C[C@H](Cc1ccccc1)NC(=O)O[C@H]1CO[C@H]2OCC[C@H]21 [Example 59, (2S,3S,5S)-2-(3-Hydroxy-2-methyl-benzoyl)amino-5-((3R,3aS,6aR)-bis-tetrahydrofuran-3-yl-oxycarbonyl)amino-1,6-diphenyl-3-hydroxyhexane] | 67 | > 100 | 0.153 | –
Cc1c(O)cccc1C(=O)N[C@@H](Cc1ccccc1)[C@@H](O)C[C@H](Cc1ccccc1)NC(=O)O[C@@H]1CO[C@@H]2OCC[C@@H]21 [Example 60, (2S,3S,5S)-2-(3-Hydroxy-2-methyl-benzoyl)amino-5-((3S,3aR,6aS)-bis-tetrahydrofuran-3-yl-oxycarbonyl)amino-1,6-diphenyl-3-hydroxyhexane] | – | > 100 | 1.12 | inhibition at 0.0022 µM (HIV-1 protease; pH 4.5): 50%
Nc1ccc(Cl)c(C(=O)N[C@@H](Cc2ccccc2)[C@@H](O)C[C@H](Cc2ccccc2)NC(=O)O[C@H]2CO[C@H]3OCC[C@H]32)c1 [Example 62, (2S,3S,5S)-2-(3-Amino-6-chloro-benzoyl)amino-5-((3R,3aS,6aR)-bis-tetrahydrofuran-3-yl-oxycarbonyl)amino-1,6-diphenyl-3-hydroxyhexane] | 70 | > 100 | 0.081 | –
Nc1ccc(Cl)c(C(=O)N[C@@H](Cc2ccccc2)[C@@H](O)C[C@H](Cc2ccccc2)NC(=O)O[C@@H]2CO[C@@H]3OCC[C@@H]32)c1 [Example 63, (2S,3S,5S)-2-(3-Amino-6-chloro-benzoyl)amino-5-((3S,3aR,6aS)-bis-tetrahydrofuran-3-yl-oxycarbonyl)amino-1,6-diphenyl-3-hydroxyhexane] | – | > 100 | 1.56 | inhibition at 0.0029 µM (HIV-1 protease; pH 4.5): 50%
O=C(N[C@@H](Cc1ccccc1)C[C@H](O)[C@H](Cc1ccccc1)NC(=O)c1ccc(O)cc1)O[C@H]1CO[C@H]2OCC[C@H]21 [Example 64, (2S,3S,5S)-2-(4-Hydroxy-benzoyl)amino-5-((3R,3aS,6aR)-bis-tetrahydrofuran-3-yl-oxycarbonyl)amino-1,6-diphenyl-3-hydroxyhexane] | 64 | > 100 | 0.2 | –
O=C(N[C@@H](Cc1ccccc1)C[C@H](O)[C@H](Cc1ccccc1)NC(=O)c1ccccc1)O[C@H]1CO[C@H]2OCC[C@H]21 [Example 68, (2S,3S,5S)-2-(Benzoyl)amino-5-((3R,3aS,6aR)-bis-tetrahydrofuran-3-yl-oxycarbonyl)amino-1,6-diphenyl-3-hydroxyhexane] | 65 | > 32 | 0.233 | –
Nc1ccc(C(=O)N[C@@H](Cc2ccccc2)[C@@H](O)C[C@H](Cc2ccccc2)NC(=O)O[C@H]2CO[C@H]3OCC[C@H]32)c(Cl)c1 [Example 71, (2S,3S,5S)-2-(4-Amino-2-chloro-benzoyl)amino-5-((3R,3aS,6aR)-bis-tetrahydrofuran-3-yl-oxycarbonyl)amino-1,6-diphenyl-3-hydroxyhexane] | 72 | > 100 | 0.101 | –
Cc1ccc(O)c(C)c1OCC(=O)N[C@@H](Cc1ccccc1)C[C@H](O)[C@H](Cc1ccccc1)NC(=O)O[C@H]1CO[C@H]2OCC[C@H]21 [Example 74, (2S,3S,5S)-5-(2,6-Dimethyl-3-hydroxy-phenoxyacetyl)amino-2-((3R,3aS,6aR)-bis-tetrahydrofuran-3-yl-oxycarbonyl)amino-1,6-diphenyl-3-hydroxyhexane] | 89 | 50.5 | 0.007 | –
CC(C)c1nc(CN(C)C(=O)N[C@H](C(=O)N[C@@H](Cc2ccccc2)C[C@H](O)[C@H](Cc2ccccc2)NC(=O)OCc2cncs2)C(C)C)cs1 [ritonavir] | – | – | – | blood levels of the co-administered compound of this invention [2]: increases blood levels; half-life of the co-administered compound of this invention [2]: increases half-life; time to peak plasma concentration of the co-administered compound of this invention [2]: increases the time to peak plasma concentration
